Reference: patent US11667645B2, “Granzyme B directed imaging and therapy” (CytoSite Biopharma Inc., priority 2018, dated 2023)
Like-named read-outs stand apart in the source and are kept apart here.

Legend:
[1] = biological target: Granzyme B (human lymphocytes) (Homo sapiens (Human), UniProt P10144); experiment: human Granzyme B biochemical assay; settings: for IC50: read-out: IC50
In short: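 Enzyme (10 nM working stock, assay buffer with 0.1% BSA) pre-incubated with compound for 30 min at 22 °C, then Ac-IETD-AFC (800 µM working stock) added for 60 min at 22 °C in the dark. Fluorescence read at Ex 400/Em 505 nm; 8-point 3.16-fold series (40 µM top working stock); IC50 from % inhibition versus standard-inhibitor and DMSO controls.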

[2] = metabolic stability assay using liver microsomes; type: in vitro ADME; settings: human liver microsomes, with NRS at 37° C.
Description: In addition, compounds of Formula I-VIII described above are also tested in the metabolic stability assay using liver microsomes, as provided below.
Buffer pH7.4: Prepare 1 (M) KH2PO4 and 1 (M) K2HPO4. Titrate 1(M) K2HPO4 with 1 (M) KH2PO4 to obtain pH 7.40. Dilute this buffer 10 fold in Water (30 ml buffer+270 ml of water) to obtain 100 mM phosphate buffer. Adjust pH to 7.40±0.02 using 5(N) HCl or 5(N) NaOH.
NADPH Regeneration System (NRS): Prepare a solution containing 13 mM NADP, 33 mM Glucose-6-phosphate, 33 mM MgCl2 and 4 U/ml Glucose-6-phosphate dehydrogenase in buffer.
Liver Microsome (LM) suspension: Thaw LM vial on ice, then mix 1.0 ml LM (20 mg/ml) with 19 ml buffer [final LM Conc: 1 mg/ml]
LM+NRS suspension: Mix 5.0 ml NRS with 20 ml LM suspension [final LM Conc: 0.8 mg/ml]
System suitability standard: a synthesized compound having Mol wt 686.2 used as System suitability standard. Dissolve this compound in ice-cold acetonitrile to obtain concentration of 0.1 μg/ml and store at 4° C.
Compound Stock: 10 mM in DMSO
Sub stock (100 μM): 4 μl of 10 mM Compound Stock+[…] Acetonitrile
Working plate (2 μM): 10 μl of 100 μM Sub stock+490 μl buffer
Incubate all plastic materials including tips at 37° C. overnight.
Incubate LM suspension and NRS at 37° C. for 15 min before use.
Add 40 μl buffer to the wells of blank plate.
Add 40 μl compound (from working plate) to 0, 5, 10, 20, 30 and 60 min plates.
Initiate reaction by adding 40 μl of LM+NRS suspension in each plate.
Terminate reaction by adding 240 μl ice-cold acetonitrile containing system suitability standard at designated time points. For T=0 add 240 μl ice-cold acetonitrile containing system suitability standard before LM+NRS addition.
Centrifuge (3500 rpm, 20 min and 15° C.) the plates.
Mix 110 μl supernatant with 110 μl water and quantitate amount of Compound in the solution using LC-MS/MS.
For Scaled CLint & Predicted CL use the relevant physiological parameters, as applicable.
Human LM: Corning, Cat #25117
Mouse LM: Xenotech, Cat #M1000
(2) Volumes mentioned in the protocol are representative values and may change depending on number of test compounds.
(3) It is assumed that the compounds are chemically stable in the assay system/buffer.
The metabolic stability assay described above can be performed using different test concentrations, LM Concentrations, or time points.
Certain compounds of this disclosure were tested in the microsomal stability assay provided above.

[3] = Granzyme B (human lymphocytes) 5 nM, substrate Ac-IETD-AFC 200 μM, Cpd incubation with enzyme 30 mins, 22° C., read time 60 mins
[4] = Granzyme B IC50 as repeated in Table 7

Chain of Granzyme B (human lymphocytes) (P10144 21-247): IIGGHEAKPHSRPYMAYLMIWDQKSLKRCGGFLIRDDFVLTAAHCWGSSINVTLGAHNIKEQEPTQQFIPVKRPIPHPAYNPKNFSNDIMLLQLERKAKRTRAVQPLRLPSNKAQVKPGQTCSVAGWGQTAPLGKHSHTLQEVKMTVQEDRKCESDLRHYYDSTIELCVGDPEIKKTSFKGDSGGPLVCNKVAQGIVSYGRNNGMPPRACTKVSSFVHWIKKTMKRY

CC(C)[C@H](NC(=O)COCCF)C(=O)N[C@H]1COc2cccc3c2N(C1=O)[C@H](C(=O)NCc1c[nH]nn1)C3 [Compound C103, (1S,8S)-8-{(S)-2-[2-(2-Fluoro-ethoxy)-acetylamino]-3-methyl-butyrylamino}-9-oxo-1,2,8,9-tetrahydro-7H-6-oxa-9a-aza-benzo[cd]azulene-1-carboxylic acid (1H-[1,2,3]triazol-4-ylmethyl)-amide]
IC50 [1, 3]: 1 to 300 nM
IC50 [1, 4]: 1 to 300 nM
HLM % remaining @ 30 min [2]: *** (the symbol “***” indicates a remaining percentage of 71-100%)

CC[C@H](C)[C@H](NC(=O)COCCF)C(=O)N[C@H]1CCc2cccc3c2N(C1=O)[C@H](C(=O)NCc1c[nH]nn1)C3 [Compound C058, (2S,5S)-5-{(2S,3S)-2-[2-(2-Fluoro-ethoxy)-acetylamino]-3-methyl-pentanoylamino}-4-oxo-1,2,4,5,6,7-hexahydro-azepino[3,2,1-hi]indole-2-carboxylic acid (1H-[1,2,3]-triazol-4-ylmethyl)-amide]
IC50 [1, 3]: 1 to 300 nM
IC50 [1, 4]: 1 to 300 nM
HLM % remaining @ 30 min [2]: *** (the symbol “***” indicates a remaining percentage of 71-100%)

CC(=O)N[C@H](C(=O)N[C@H]1CCc2cccc3c2N(C1=O)[C@H](C(=O)NCc1c[nH]nn1)C3)C(C)C [Compound C025, (2S,5S)-5-((S)-2-Acetylamino-3-methyl-butyrylamino)-4-oxo-1,2,4,5,6,7-hexahydro-azepino[3,2,1-hi]indole-2-carboxylic acid (1H-[1,2,3]triazol-4-ylmethyl)-amide]
IC50 [1, 3]: 1 to 300 nM
IC50 [1, 4]: 1 to 300 nM
HLM % remaining @ 30 min [2]: *** (the symbol “***” indicates a remaining percentage of 71-100%)

CC[C@H](C)[C@H](NC(=O)Cc1csc2ccccc12)C(=O)N[C@H]1CCc2cccc3c2N(C1=O)[C@H](C(=O)NCc1c[nH]nn1)C3 [Compound C006, (2S,5S)-5-[(2S,3S)-2-(2-Benzo[b]thiophen-3-yl-acetylamino)-3-methyl-pentanoylamino]-4-oxo-1,2,4,5,6,7-hexahydro-azepino[3,2,1hi]indole-2-carboxylic acid (1H-[1,2,3]triazol-4-ylmethyl)-amide]
IC50 [1, 3]: 1 to 300 nM
IC50 [1, 4]: 1 to 300 nM
biological potency of separated isomer (in words) ([1]; isomers separated by prep HPLC or column chromatography): biologically potent
HLM % remaining @ 30 min [2]: * (“*” indicates a remaining percentage of 0-30%)

CC[C@H](C)[C@H](NC(=O)c1ccc(F)nc1)C(=O)N[C@H]1CCc2cccc3c2N(C1=O)[C@H](C(=O)NCc1c[nH]nn1)C3 [Compound C140, (2S,5S)-5-{(2S,3S)-2-[(6-Fluoro-pyridine-3-carbonyl)-amino]-3-methyl-pentanoylamino}-4-oxo-1,2,4,5,6,7-hexahydro-azepino[3,2,1-hi]indole-2-carboxylic acid (1H-[1,2,3]triazol-4-ylmethyl)-amide]
IC50 [1, 3]: 1 to 300 nM
IC50 [1, 4]: 1 to 300 nM
HLM % remaining @ 30 min [2]: *** (the symbol “***” indicates a remaining percentage of 71-100%)

CC[C@H](C)[C@H](NC(=O)c1ccccc1)C(=O)N[C@H]1CCc2cccc3c2N(C1=O)[C@H](C(=O)NCc1c[nH]nn1)C3 [Compound C039, (2S,5S)-5-((2S,3S)-2-Benzoylamino-3-methyl-pentanoylamino)-4-oxo-1,2,4,5,6,7-hexahydro-azepino[3,2,1-hi]indole-2-carboxylic acid (1H-[1,2,3]triazol-4-ylmethyl)-amide]
IC50 [1, 3]: 1 to 300 nM
IC50 [1, 4]: 1 to 300 nM
HLM % remaining @ 30 min [2]: ** (“**” indicates a remaining percentage of 31-70%)

CC[C@H](C)[C@H](NC(=O)c1ccnc(F)c1)C(=O)N[C@H]1CCc2cccc3c2N(C1=O)[C@H](C(=O)NCc1c[nH]nn1)C3 [Compound C141, (2S,5S)-5-{(2S,3S)-2-[(2-Fluoro-pyridine-4-carbonyl)-amino]-3-methyl-pentanoylamino}4-oxo-1,2,4,5,6,7-hexahydro-azepino[3,2,1-hi]indole-2-carboxylic acid (1H-[1,2,3]triazol-4-ylmethyl)-amide]
IC50 [1, 3]: 1 to 300 nM
IC50 [1, 4]: 1 to 300 nM
HLM % remaining @ 30 min [2]: *** (the symbol “***” indicates a remaining percentage of 71-100%)

CC[C@@H](C)[C@H](NC(=O)c1ccccc1)C(=O)N[C@H]1CCc2cccc3c2N(C1=O)[C@H](C(=O)NCc1c[nH]nn1)C3 [Compound C053, (2S,5S)-5-((2S,3R)-2-Benzoylamino-3-methyl-pentanoylamino)-4-oxo-1,2,4,5,6,7-hexahydro-azepino[3,2,1-hi]indole-2-carboxylic acid (1H-[1,2,3]triazol-4-ylmethyl)-amide]
IC50 [1, 3]: 1 to 300 nM
IC50 [1, 4]: 1 to 300 nM
HLM % remaining @ 30 min [2]: ** (“**” indicates a remaining percentage of 31-70%)

CC[C@H](C)[C@H](NC(=O)c1ccccc1)C(=O)N[C@H]1COc2cccc3c2N(C1=O)[C@H](C(=O)NCc1c[nH]nn1)C3 [Compound C096, (1S,8S)-8-((2S,3S)-2-Benzoylamino-3-methyl-pentanoylamino)-9-oxo-1,2,8,9-tetrahydro-7H-6-oxa-9a-aza-benzo[cd]azulene-1-carboxylic acid (1H-[1,2,3]triazol-4-ylmethyl)-amide]
IC50 [1, 3]: 1 to 300 nM
IC50 [1, 4]: 1 to 300 nM
HLM % remaining @ 30 min [2]: ** (“**” indicates a remaining percentage of 31-70%)

CC(C)[C@H](NC(=O)COCCF)C(=O)N[C@H]1CCc2cccc3c2N(C1=O)[C@H](C(=O)NCc1c[nH]nn1)C3 [Compound C056, (2S,5S)-5-{(S)-2-[2-(2-Fluoro-ethoxy)-acetylamino]-3-methyl-butyrylamino}-4-oxo-1,2,4,5,6,7-hexahydro-azepino[3,2,1-hi]indole-2-carboxylic acid (1H-[1,2,3]triazol-4-ylmethyl)-amide]
IC50 [1, 3]: 1 to 300 nM
IC50 [1, 4]: 1 to 300 nM
HLM % remaining @ 30 min [2]: *** (the symbol “***” indicates a remaining percentage of 71-100%)

CC[C@H](C)[C@H](NC(=O)COCCF)C(=O)N[C@H]1CCc2cccc3c2N(C1=O)[C@H](C(=O)NCc1cc(O)n[nH]1)C3 [Compound C166, (2S,5S)-5-{(2S,3S)-2-[2-(2-Fluoro-ethoxy)-acetylamino]-3-methyl-pentanoylamino}-4-oxo-1,2,4,5,6,7-hexahydro-azepino[3,2,1-hi]indole-2-carboxylic acid (5-hydroxy-2H-pyrazol-3-ylmethyl)-amide]
IC50 [1, 3]: 1000 to 5000 nM

CC(C)[C@H](NC(=O)c1ccncc1)C(=O)N[C@H]1CCc2cccc3c2N(C1=O)[C@H](C(=O)NCc1c[nH]nn1)C3 [Compound C071, (2S,5S)-5-{(S)-3-Methyl-2-[(pyridine-4-carbonyl)-amino]-butyrylamino}-4-oxo-1,2,4,5,6,7-hexahydro-azepino[3,2,1-hi]indole-2-carboxylic acid (1H-[1,2,3]triazol-4-ylmethyl)-amide]
IC50 [1, 3]: 1 to 300 nM

CC[C@H](C)[C@H](NC(=O)COCCF)C(=O)N[C@H]1CCc2cccc3c2N(C1=O)[C@H](C(=O)NCc1cncs1)C3 [Compound C112, (2S,5S)-5-{(2S,3S)-2-[2-(2-Fluoro-ethoxy)-acetylamino]-3-methyl-pentanoylamino}-4-oxo-1,2,4,5,6,7-hexahydro-azepino[3,2,1-hi]indole-2-carboxylic acid (thiazol-5-ylmethyl)-amide]
IC50 [1, 3]: > 5000 nM

CC[C@H](C)[C@H](NC(=O)c1ccccn1)C(=O)N[C@H]1CCc2cccc3c2N(C1=O)[C@H](C(=O)NCc1c[nH]nn1)C3 [Compound C066, (2S,5S)-5-{(2S,3S)-3-Methyl-2-[(pyridine-2-carbonyl)-amino]-pentanoylamino}-4-oxo-1,2,4,5,6,7-hexahydro-azepino[3,2,1-hi]indole-2-carboxylicacid (1H-[1,2,3]triazol-4-ylmethyl)-amide]
IC50 [1, 3]: 1 to 300 nM
